≈ marks a conversion by molar mass, not a printed value. Entries after “also recorded” stand apart in the source; their conditions may differ. Where two headings read alike, the source gives them in different places.
Columns and labels:
MRSA strains = experiment: MIC against MRSA strains (summary); assay type: cell-based, Staphylococcus aureus; settings: range over MRSA strains
Procedure: (§1) 96-well plates were seeded with 5 × 10^5 CFU/mL in a volume of 100 μL of tryptic soy broth (TSB) per well for Staphylococcus aureus assays. Compounds were dissolved in DMSO and serially diluted as 1:2 dilutions to give the final concentration ranging from 0.25 to 128 μg/mL per well. […] Plates were incubated at 37 °C for 18–20 hours and MIC was determined by reading OD625. For M.avium and M.abscessus, 7H9 broth media was used for determination of MICs. The final concentration was 5 × 10^5 CFU/mL in each well. The plate was incubated at 37 °C for 7–8 days and MICs were determined using a Tecan microplate reader (OD625) and resazurin reduction assay.

MRSA USA100 = experiment: MIC against MRSA USA100; assay type: cell-based, Staphylococcus aureus; settings: Staphylococcus aureus; TSB, 37 °C, 18–20 hours; read-out: MIC, Staphylococcus aureus isolate USA100
Procedure: as §1

MRSA USA800 = experiment: MIC against MRSA USA800; assay type: cell-based, Staphylococcus aureus; settings: Staphylococcus aureus; TSB, 37 °C, 18–20 hours; read-out: MIC, Staphylococcus aureus isolate USA800
Procedure: as §1

MRSA USA500 = experiment: MIC against MRSA USA500; assay type: cell-based, Staphylococcus aureus; settings: Staphylococcus aureus; TSB, 37 °C, 18–20 hours; read-out: MIC, Staphylococcus aureus isolate USA500
Procedure: as §1

MRSA USA700 = experiment: MIC against MRSA USA700; assay type: cell-based, Staphylococcus aureus; settings: TSB, 37 °C, 18–20 hours
Procedure: as §1

Pseudomonas aeruginosa = experiment: MIC against Pseudomonas aeruginosa; assay type: cell-based; settings: read-out: MIC, PA
Gram-positive bacteria = experiment: MIC against Gram-positive bacteria (summary); assay type: cell-based; settings: range over all tested Gram-positive bacteria
Procedure: as §1

IL-1β = IL-1β release from THP-1 macrophages; assay type: cell-based, human; settings: concentration equal to MIC, 24 h, 37 °C
Procedure: (§2) THP-1 cells were differentiated into macrophages by treatment with PMA (7.5 ng/mL). Levels of the human cytokines (GM-CSF, IFN-γ, IL-1β, IL-2, IL-4, IL-5, IL-6, IL-8, IL-10, TNF-α) released from THP-1 macrophages were determined using a multiplex kit from Life Technologies according to the manufacturer’s instructions. In brief, the 96 well filter plate was pre-wetted, and then 25 μL of the diluted bead suspension was added to each well and washed twice. 100 μL of samples and standards were added to each well. The plate was incubated at room temperature for 2 h on a shaker. Following washing, biotinylated detection antibody was added and incubated for 1 h. After washing, streptavidin-RPE was added to each well and incubated for 0.5 h. The plate was again washed, resuspended in 100 μL of the washing buffer, and read on the Luminex xMAP™ system (Bio-Rad, AtheNA multi-Lyte™, USA). All samples were run in triplicate and standards were run in duplicate.

IL-6 = IL-6 release from THP-1 macrophages; assay type: cell-based, human; settings: concentration equal to MIC, 24 h, 37 °C
Procedure: as §2

Enterococcus faecalis = experiment: MIC against Enterococcus faecalis; assay type: cell-based; settings: read-out: MIC, EF
MRSA USA400 = experiment: MIC against MRSA USA400; assay type: cell-based, Staphylococcus aureus; settings: Staphylococcus aureus; TSB, 37 °C, 18–20 hours; read-out: MIC, Staphylococcus aureus isolate USA400
Procedure: as §1

MRSA (USA200) = experiment: Colony morphology / small colony variant formation on TSA; assay type: cell-based, Staphylococcus aureus
Procedure: MRSA was streaked and then incubated on tryptic soy agar (TSA) containing 0, 2, 4, 8 or 16 μg/mL of inhibitor 3a or 4 μg/mL of 7C or 0.025 μg/mL of rifampin at 37 °C for 96 h. MK-4 (100 μg/mL) was supplemented in TSA containing 8 μg/mL of 3a for the rescue experiment.

[1] = test system: Methicillin susceptible Staphylococcus aureus; experiment: MIC against MSSA; assay type: cell-based; settings: MSSA
Procedure: as §1

Mycobacterium avium = experiment: MIC against Mycobacterium avium; assay type: cell-based; settings: 7H9 broth, 7–8 days
Procedure: as §1

MRSA USA300 = experiment: MIC against MRSA USA300; assay type: cell-based, Staphylococcus aureus; settings: Staphylococcus aureus; TSB, 37 °C, 18–20 hours; read-out: MIC, Staphylococcus aureus isolate USA300
Procedure: as §1

Mycobacterium abscessus = experiment: MIC against Mycobacterium abscessus; assay type: cell-based; settings: Mycobacteroides abscessus, 7H9 broth, 7–8 days
Procedure: as §1

MRSA USA200 = experiment: MIC against MRSA USA200; assay type: cell-based, Staphylococcus aureus; settings: Staphylococcus aureus; TSB, 37 °C, 18–20 hours; read-out: MIC, Staphylococcus aureus isolate USA200
Procedure: as §1

TNF-α = TNF-α release from THP-1 macrophages; assay type: cell-based, human; settings: concentration equal to MIC, 24 h, 37 °C
Procedure: as §2

MRSA USA 700 = experiment: Menaquinone (MK-4) rescue, resazurin reduction assay, USA 700; assay type: cell-based; settings: Staphylococcus aureus, read-out: MIC in the presence of MK-4
Procedure: Resazurin reduction assay was performed in 96-well plate. MRSA was cultured in TSB until OD625 reached 0.4~0.5 and diluted and plated in 96-well plate. […] The plate was incubated overnight at 37 °C followed by 20 μL of resazurin (0.15 mg/mL) was added to each well. The plate was incubated for 2–4 h and fluorescence was measured at 560 nm excitation/590 nm emission.

MRSA (USA700) biofilms = experiment: S. aureus biofilm assay; assay type: cell-based, Staphylococcus aureus; settings: USA700 biofilm, 24 h
Procedure: Biofilm assays were performed using a method previously described with modification. A 96 well plate was precoated with 20% human plasma (Sigma) in 0.05 M carbonate buffer, pH 9.6 at 4 °C for 24 h. MRSA was cultured overnight in TSB containing 3% NaCl and 0.5% glucose. The overnight culture was diluted with TSB/NaCl/Glucose media until OD600 reached 0.05. After carefully removing the liquid from the 96 well plate, 200 μL of MRSA dilution was added to each well in triplicate. The plate was incubated at 37 °C for 24 h and carefully washed with PBS twice. MH broth (200 μL) containing a compound was added to each well in triplicate and incubated at 37 °C for 24 h. After washing with PBS twice, the biofilm was scraped in 100 μL of PBS and serially diluted and plated on TSA to determine CFU.

MRSA (USA 700) = experiment: Activity against extracellular MRSA in the presence of human MDMs; assay type: cell-based, Staphylococcus aureus; settings: extracellular MRSA USA700, MIC and MIC/4, 24 h
Procedure: Human monocyte-derived macrophages (MDM) were cultured at a concentration of 1 × 10^6 cells/mL/well in a 24 well plate. MRSA (USA 700) was cultured in TSB (10 mL) until OD625 reached 0.4~0.5 and then centrifuged at 14,000 rpm for 10 min. The pellets were resuspended in 10 mL of DMEM supplemented with 10% human serum (no antibiotics). The bacteria medium was diluted with DMEM containing an inhibitor to obtain 1 × 10^6 CFU/mL and added to human MDMs (MOI = 1) in a 24-well plate. After 24 hour infection at 37 °C, the supernatants were serially diluted for CFU determination (TSA plates).

Structure (SMILES): COc1ccc2ccc(OCCCCCCCCNCCc3ccc(F)cc3)cc2c1 [3a]
- MICs against MRSA strains (range) (MRSA strains): 1 to 8 µg/mL
- MIC (MRSA USA100): 4 µg/mL (≈ 9.44 µM)
- MIC (MRSA USA800): 6 µg/mL (≈ 14.2 µM)
- MIC (MRSA USA500): 4 µg/mL (≈ 9.44 µM)
- MIC (MRSA USA700; Staphylococcus aureus, read-out: MIC, Staphylococcus aureus isolate USA700): 4 µg/mL (≈ 9.44 µM)
- MIC, Staphylococcus aureus isolate USA700 (MRSA USA700): 4 µg/mL (≈ 9.44 µM)
- MIC (Pseudomonas aeruginosa): > 64 µg/mL
- MIC values against all Gram-positive bacteria (range) (Gram-positive bacteria): 0.5 to 16 µg/mL
- IL-1β released from THP-1 macrophages (IL-1β): stimulated the release
- IL-6 released from THP-1 macrophages (IL-6): decreased; also recorded: significantly reduced
- MIC (Enterococcus faecalis): 1 µg/mL (≈ 2.36 µM)
- MIC (MRSA USA400): 4 µg/mL (≈ 9.44 µM)
- colonies on MK-4 supplemented agar plate (MRSA (USA200); USA200, 8 μg/mL inhibitor + MK-4 100 μg/mL): showed wild-type colonies
- colonies on agar plates (MRSA (USA200); USA200, more than 2× MIC, after 24 h): No colonies were observed
- induction of small colony variants (SCV) (MRSA (USA200); USA200 on TSA, 37 °C, up to 96 h (3a 4–16 μg/mL), 72 h (7c, rifampin)): did not induce SCV
- MIC [1]: 4 µg/mL (≈ 9.44 µM)
- MIC (Mycobacterium avium): 2 µg/mL (≈ 4.72 µM)
- MIC (MRSA USA300): 4 µg/mL (≈ 9.44 µM)
- MIC (Mycobacterium abscessus): 6 µg/mL (≈ 14.2 µM)
- MIC (MRSA USA200): 2 µg/mL (≈ 4.72 µM)
- TNF-α released from THP-1 macrophages (TNF-α): decreased
- MIC (MRSA USA 700; USA 700, 0.05 mg/mL MK-4): 16 µg/mL
- MIC (MRSA USA 700; USA 700, 0.5 mg/mL MK-4): 64 µg/mL
- fold decrease in MRSA growth from the treated biofilm (MRSA (USA700) biofilms; 0.03 mg/mL): 10^4 fold
- fold decrease in MRSA growth from the treated biofilm (MRSA (USA700) biofilms; 0.5 mg/mL): 10^6 fold
- fold decrease in MRSA growth from the treated biofilm (MRSA (USA700) biofilms; 1 mg/mL): 10^7 fold
- increase of antibacterial activity compared to activities with MDMs (MRSA (USA 700)): 1.5 – 3 fold
- increase of antibacterial activity compared to activities without MDMs (MRSA (USA 700)): 6–12 fold

Reference: article PMC5223195, “Novel long-chain compounds with both immunomodulatory and MenA inhibitory activities against Staphylococcus aureus and its biofilm” (Scientific Reports, 2017)
